This is an account of results in patent US10421755B2, “Salts of aza-bicyclic di-aryl ethers and methods to make them or their precursors” (Novartis AG, priority 2011, dated 2019).

The nature of data set [1]: Pharmacokinetics in rats after oral administration. The data set is classed as in vivo, Wistar rats. As to conditions: male, Wistar, rat, in vivo, po, 10 mg/kg; for Tmax: Tmax (h). The method, then:
If a salt forming agent is used (e.g. fumarate), a corresponding higher amount of the salt will be used to achieve the intended dosing.
Both compounds were dissolved in Klucel™ (0.5% in water) and were orally administered by gavage (5 ml/kg) to conscious rats (n=8, cross-over design).
K3-EDTA blood (˜0.2 ml) was collected by puncture of a sublingual vein under light isoflurane anesthesia at the following time points: 0.25, 0.5, 1, 2, 3, 4, 6, 8, 24 h post dose. Immediately after sampling, blood samples were put on ice and were processed to plasma by centrifugation at 4° C. within 15 min after sampling (1000 g, 10 min, 4° C.) to obtain ˜100 μl plasma/sample. All plasma samples were stored at −80° C. until analysis. Since the PK study was performed in a cross-over design, a recovery period of approximately 2 weeks took place before the next treatment/blood sampling was performed.
The determination of compounds in plasma was done by LC-MS/MS using electrospray ionization.

Data set [2] can be described thus: Decomposition temperature. The data set is classed as physicochemical. Set-up: unit not given here. Particulars: comparison table, Example 7.

One may read the AUC(0-t) as the area under the concentration-time curve up to a stated or last time point. Broadly, the Cmax is the peak of the concentration-time curve. In general, Tmax refers to the time at which the peak concentration occurs. For orientation: half-life means the time in which the quantity being followed falls by half.

Each structure is given as a SMILES string.

Turning to `Cc1ccc(-c2ccc(O[C@H]3CN4CCC3CC4)cn2)cc1` [Compound A, (R)-3-(6-(4-methylphenyl)-pyridin-3-yloxy)-1-aza-bicyclo[2.2.2]octane], the “Cmax/Dose (ng/mL)/(mg/kg), Mean All” value in data set [1] is recorded as 11.3 (ng/mL)/(mg/kg). This compound also displayed an AUC(0-t) in data set [1] (AUClast (h · ng/mL), Mean All) of 0.2 ± 0.062 µg·h/mL. In addition, the Cmax in data set [1] (Cmax (ng/mL), Mean All) was 0.112 ± 0.04 µg/mL. Besides, the time of peak concentration (Tmax) in data set [1] was 15 min; in data set [1] (all rats) it was 15 to 30 min. The same compound showed a half-life in data set [1] (T½ (h), Mean All) of 310 min. Further, in data set [2], the Decomposition temperature came to 224.
